Results: US10046050B2, “Targeting immunotherapy for amyloidosis” (UNIVERSITY OF TENNESSEE RESEARCH FOUNDATION, priority 2014, dated 2018)

Tests used:
[1] = system: synthetic amyloid fibrils composed of rVλ6Wil (AL fibrils); experiment: EuLISA of murine 11-1F4 on synthetic amyloid fibrils with or without p66; format: binding; details: p66 added to fibril-coated wells
Experimental: (§1) To assess the interaction of 11-1F4 with synthetic amyloid fibrils, we evaluated the interaction of murine 11-1F4 with synthetic amyloid fibrils composed of the λ6 light chain Wil-associated with light chain (AL) amyloidosis, or Aβ(1-40), associated with Alzheimer's disease and cerebral amyloid angiopathy. More particularly, Costar high binding plates were coated with 50 μl per well of […] of synthetic amyloid fibrils composed of rVλ6Wil (AL fibrils) or Aβ(1-40) overnight at 37° C. The plates were washed with 1× solution of phosphate buffered saline with 0.05% (v/v) tween 20 (PBST)—similar wash steps were performed between each step. As a “blocking step” the plates were incubated for 1 h at 37° C. with 200 μl of 1% (w/v) BSA in PBS per well. The murine 11-1F4 mAb was added from 100 nM (in BSAT), as a starting concentration, and diluted 1:2 across the microplate and incubation for 1 h at 37° C. Biotinylated goat anti-mouse secondary antibodies (Sigma) were used at a 1:3000 dilution in BSAT. Europium-conjugated streptavidin (Perkin Elmer) was added (1:1000 dilution of stock) as a detection medium and the plate incubated for 1 h 37° C. […] was quantified following addition of enhancement solution (Perkin Elmer) and the time-resolved fluorescence measured using a Victor 3 Wallac plate reader (Perkin Elmer).

[2] = target: T1, Aβ(1-40) fibrils (Homo sapiens, UniProt P05067); experiment: as above; format: binding; details: p66 added to fibril-coated wells
T1 construct: synthetic amyloid fibrils composed of rVλ6Wil (AL fibrils) or Aβ(1-40); host or cells: synthetic peptide fibrils
T1 sequence (P05067 672-711 limits assumed): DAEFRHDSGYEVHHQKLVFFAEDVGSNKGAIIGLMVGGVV
Experimental: as §1

[3] = target: T2, AA amyloid (Mus musculus, UniProt P05367); experiment: In vivo pre-targeting of ^125I-11-1F4 to systemic AA amyloid; set-up: species or system mice
T2 construct: from tissue; host or cells: organs of living H2-L^d-huIL-6 Tg Balb/c mice after AEF injection
T2 sequence (P05367 20-94 limits assumed): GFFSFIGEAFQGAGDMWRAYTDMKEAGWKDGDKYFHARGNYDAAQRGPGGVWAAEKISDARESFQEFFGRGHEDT
Experimental: Systemic visceral AA amyloidosis was induced in H2-L^d-huIL-6 Tg Balb/c transgenic mice that constitutively express the human interleukin-6 transgene, by iv injection of 10 μg of purified, splenic AA amyloid (amyloid enhancing factor; AEF) in 100 μL of sterile phosphate-buffered saline (PBS). Peptide p66 pre-targeting of ^125I-11-1F4 was evaluated in mice at 3-4 wk post AEF injection when amyloid load was modest.
Three cohorts of 3 mice, each received ˜400 μg of unlabeled peptide p66, and a second group of 3 cohorts were given peptide p5+14 as a control. Twenty-four hours after the peptide injection all mice were administered ˜150 μCi (˜20 μg) of ^125I-11-1F4 IV in the lateral tail vein. One group of p66 mice (n=3) and one group of p5+14 control mice (n=3) were euthanized at 24, 48 and 72 h post injection of 11-1F4 mAb and the organs harvested at necropsy for fixation, followed by microautoradiographic and immunohistochemical analyses.
For autoradiography, 6-μm-thick sections were cut from formalin-fixed, paraffin-embedded blocks, containing tissues from mice that had received […]. The sections were placed on Plus microscope slides (Fisher Scientific), dipped in NTB-2 emulsion (Eastman Kodak), stored in the dark, and developed after a 4 day exposure. Each section was counterstained with hematoxylin and eosin.
Formalin-fixed paraffin embedded tissue sections, from mice treated with p66 peptope or peptide p5+14 were subjected to antigen retrieval using citrate buffer (pH 6; Dako) 30 min at 90° C. The tissue was then blocked with hydrogen peroxide, casein, and avidin and biotin, per manufacturer's instructions. The biotinylated peptide-reactive mAb (clone 12-3 [described above]) was then added (1.6 μg/mL in PBS) an the samples incubated for 2 h at RT, O/N at 4° C., followed by another 2 h period at RT. […]
The presence of macrophages was detected by staining with mAb Iba-1 (1:8000 diln) followed by addition of biotinylated rabbit anti-mouse secondary reagent (Vector Rabbit Elite kit). […]

reactivity of the 11-1F4 mAb with fibrils when p66 was added [2]: enhanced
Substance: KAQKAQAKQAKQAQKAQKAQAKQAKQAQKAQKAQAKQAKQ SVTVVT KHYAAFPENLLI [p66]
reactivity of the 11-1F4 mAb with fibrils when p66 was added [1]: enhanced
co-localization of ^125I-11-1F4 with AA amyloid after peptide pre-targeting ([3]; 24 h post injection of 11-1F4 mAb, peptide given 24 h before mAb): exclusively co-localized with the p66-coated AA amyloid
liver macrophage infiltration (Iba-1 staining) ([3]; 72 h post injection of 11-1F4 mAb, peptide pre-injected, preliminary data): induced macrophage infiltration into the liver and clustering of macrophages around amyloid deposits to a greater degree
